Measurements reported in ChEMBL document CHEMBL4725338, “Discovery of novel histone lysine methyltransferase G9a/GLP (EHMT2/1) inhibitors: Design, synthesis, and structure-activity relationships of 2,4-diamino-6-methylpyrimidines” (Bioorg Med Chem Lett, 2020).
Converted amounts (≈) assume the structure as drawn.

How the values were obtained:
hERG (KCNH2) = hERG (KCNH2) (Homo sapiens, UniProt Q12809); assay: Inhibition of human ERG at 10 uM relative to control
[1] = Oral bioavailability in mouse at 10 mg/kg; type: ADME, organism-based; details: in vivo
[2] = AUC (0 to infinity) in mouse at 1 mg/kg, iv; type: ADME, organism-based; design: time infinity, route intravenous, dose 1 mg/kg; details: in vivo
CYP2C19 = CYP2C19 (Homo sapiens, UniProt P33261); assay: Inhibition of CYP2C19 (unknown origin) at 10 uM relative to control; type: ADME
[3] = Initial plasma concentration in mouse at 1 mg/kg, iv; type: ADME, organism-based
[4] = AUC (0 to infinity) in mouse at 10 mg/kg, po; type: ADME, organism-based; design: time infinity, route oral, dose 10 mg/kg; details: in vivo
CYP2D6 = CYP2D6 (Homo sapiens, UniProt P10635); assay: Inhibition of CYP2D6 (unknown origin) at 10 uM relative to control; type: ADME
CYP2C8 = biological target: T1, CYP2C8 (Homo sapiens, UniProt P10632); assay: Inhibition of CYP2C8 (unknown origin) at 10 uM relative to control; type: ADME
T1 sequence (P10632 whole entry): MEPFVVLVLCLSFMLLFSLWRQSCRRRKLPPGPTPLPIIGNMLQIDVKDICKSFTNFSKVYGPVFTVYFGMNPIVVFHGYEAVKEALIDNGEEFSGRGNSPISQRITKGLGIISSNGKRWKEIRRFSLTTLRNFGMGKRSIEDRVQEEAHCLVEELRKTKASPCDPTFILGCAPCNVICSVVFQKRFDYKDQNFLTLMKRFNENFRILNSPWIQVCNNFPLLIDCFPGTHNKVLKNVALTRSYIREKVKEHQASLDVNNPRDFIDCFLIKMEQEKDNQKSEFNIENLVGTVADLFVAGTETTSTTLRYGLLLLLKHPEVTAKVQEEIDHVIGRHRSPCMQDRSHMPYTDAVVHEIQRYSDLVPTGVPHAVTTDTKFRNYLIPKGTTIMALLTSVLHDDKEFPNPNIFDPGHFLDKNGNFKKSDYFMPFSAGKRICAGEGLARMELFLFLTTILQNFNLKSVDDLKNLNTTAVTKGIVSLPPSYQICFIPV

[5] = Volume of distribution at steady state in mouse at 1 mg/kg, iv; type: ADME, organism-based; details: in vivo, read-out: Vdss
CYP1A2 = biological target: T2, CYP1A2 (Homo sapiens, UniProt P05177); assay: Inhibition of CYP1A2 (unknown origin) at 10 uM relative to control; type: ADME
T2 sequence (P05177 whole entry): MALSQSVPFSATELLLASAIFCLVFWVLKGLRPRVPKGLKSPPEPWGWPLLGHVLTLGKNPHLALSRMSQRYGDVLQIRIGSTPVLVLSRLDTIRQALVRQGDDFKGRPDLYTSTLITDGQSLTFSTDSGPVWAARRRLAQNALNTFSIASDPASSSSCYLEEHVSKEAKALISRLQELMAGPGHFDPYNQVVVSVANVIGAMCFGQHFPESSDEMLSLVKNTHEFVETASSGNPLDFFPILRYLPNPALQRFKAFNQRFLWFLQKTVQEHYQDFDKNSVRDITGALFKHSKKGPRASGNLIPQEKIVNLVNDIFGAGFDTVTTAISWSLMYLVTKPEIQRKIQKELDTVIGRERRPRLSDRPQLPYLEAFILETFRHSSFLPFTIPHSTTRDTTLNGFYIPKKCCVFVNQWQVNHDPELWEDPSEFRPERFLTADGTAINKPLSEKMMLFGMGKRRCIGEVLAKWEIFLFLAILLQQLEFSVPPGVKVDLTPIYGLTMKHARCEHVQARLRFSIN

[6] = Intrinsic clearance in mouse at 1 mg/kg, iv; type: ADME, organism-based; details: in vivo
[7] = Aqueous solubility of the compound in pH 6.8 JP2 fluid; type: physicochemical
[8] = Metabolic stability in human liver microsomes assessed as compound remaining at 0.5 mg/mL incubated for 0.5 hrs; type: ADME, Microsome; details: read-out: Stabilty
[9] = Cmax in mouse at 10 mg/kg, po; type: ADME, organism-based; design: route oral, dose 10 mg/kg; details: in vivo
[10] = Apparent permeability in MDCK cells; type: ADME, cell-based, Canis lupus familiaris; details: dog

CYP2D6, sequence (P10635 whole entry): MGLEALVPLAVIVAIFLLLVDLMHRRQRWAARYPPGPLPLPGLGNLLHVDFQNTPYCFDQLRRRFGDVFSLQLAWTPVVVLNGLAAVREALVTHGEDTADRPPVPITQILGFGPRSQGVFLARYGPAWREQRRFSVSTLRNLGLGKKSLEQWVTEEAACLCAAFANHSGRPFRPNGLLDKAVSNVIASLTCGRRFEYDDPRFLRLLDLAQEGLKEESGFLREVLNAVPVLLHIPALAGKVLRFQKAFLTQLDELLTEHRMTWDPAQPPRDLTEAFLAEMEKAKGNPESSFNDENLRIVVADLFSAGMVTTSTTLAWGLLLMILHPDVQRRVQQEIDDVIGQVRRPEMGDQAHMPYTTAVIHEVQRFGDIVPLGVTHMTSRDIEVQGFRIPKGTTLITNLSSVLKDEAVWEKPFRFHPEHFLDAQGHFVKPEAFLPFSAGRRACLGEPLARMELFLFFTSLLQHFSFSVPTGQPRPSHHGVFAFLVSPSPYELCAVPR
hERG (KCNH2), sequence (Q12809 whole entry): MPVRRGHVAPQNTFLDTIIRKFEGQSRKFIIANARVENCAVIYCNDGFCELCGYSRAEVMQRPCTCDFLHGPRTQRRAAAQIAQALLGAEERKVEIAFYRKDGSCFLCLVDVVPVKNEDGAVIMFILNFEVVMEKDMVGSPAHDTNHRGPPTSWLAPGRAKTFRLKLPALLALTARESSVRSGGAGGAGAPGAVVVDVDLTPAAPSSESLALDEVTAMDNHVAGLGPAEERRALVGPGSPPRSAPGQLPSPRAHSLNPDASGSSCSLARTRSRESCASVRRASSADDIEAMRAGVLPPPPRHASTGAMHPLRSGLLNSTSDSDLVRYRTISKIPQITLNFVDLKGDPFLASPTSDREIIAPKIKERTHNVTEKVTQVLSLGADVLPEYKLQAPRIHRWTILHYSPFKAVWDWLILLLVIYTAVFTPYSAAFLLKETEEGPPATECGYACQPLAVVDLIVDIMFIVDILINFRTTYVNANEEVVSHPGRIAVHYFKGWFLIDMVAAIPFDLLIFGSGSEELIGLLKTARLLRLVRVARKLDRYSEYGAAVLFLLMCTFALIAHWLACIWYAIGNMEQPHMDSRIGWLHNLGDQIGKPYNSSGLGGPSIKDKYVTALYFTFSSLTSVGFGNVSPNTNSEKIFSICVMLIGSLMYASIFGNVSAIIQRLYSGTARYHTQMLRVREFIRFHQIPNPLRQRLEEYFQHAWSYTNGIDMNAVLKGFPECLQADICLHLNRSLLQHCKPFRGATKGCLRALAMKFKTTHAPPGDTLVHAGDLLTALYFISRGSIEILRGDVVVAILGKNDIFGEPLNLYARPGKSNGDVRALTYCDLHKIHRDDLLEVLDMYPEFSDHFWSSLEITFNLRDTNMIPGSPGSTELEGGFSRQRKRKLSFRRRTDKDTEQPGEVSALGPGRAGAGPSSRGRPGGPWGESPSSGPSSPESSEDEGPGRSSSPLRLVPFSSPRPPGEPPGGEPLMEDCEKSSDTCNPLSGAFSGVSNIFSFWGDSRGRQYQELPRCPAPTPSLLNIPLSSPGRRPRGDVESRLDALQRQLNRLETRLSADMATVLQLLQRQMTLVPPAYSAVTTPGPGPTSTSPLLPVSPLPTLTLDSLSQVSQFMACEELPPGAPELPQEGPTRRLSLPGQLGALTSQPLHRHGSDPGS
CYP2C19, sequence (P33261 whole entry): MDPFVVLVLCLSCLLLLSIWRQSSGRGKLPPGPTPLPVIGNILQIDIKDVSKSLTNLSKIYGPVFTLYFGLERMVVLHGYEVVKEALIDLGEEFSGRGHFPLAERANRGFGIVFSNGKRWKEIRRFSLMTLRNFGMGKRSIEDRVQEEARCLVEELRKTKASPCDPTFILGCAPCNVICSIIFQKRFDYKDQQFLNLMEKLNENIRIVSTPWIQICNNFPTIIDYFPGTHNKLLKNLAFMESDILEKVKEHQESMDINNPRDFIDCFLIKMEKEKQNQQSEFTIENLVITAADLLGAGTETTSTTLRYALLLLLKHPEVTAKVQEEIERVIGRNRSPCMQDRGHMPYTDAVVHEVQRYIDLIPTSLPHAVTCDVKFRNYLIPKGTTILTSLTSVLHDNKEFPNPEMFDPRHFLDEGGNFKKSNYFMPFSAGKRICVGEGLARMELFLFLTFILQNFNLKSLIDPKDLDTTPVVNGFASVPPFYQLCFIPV

Which inhibition at 10 µM (hERG (KCNH2)) does the source give for `CNc1cc(C)nc(Nc2ccc(OC)c(C3=CCNCCC3)c2)n1` here?
The inhibition at 10 µM was 1%.

What about the bioavailability [1] of the same compound?
The bioavailability was 40%.

What about the AUC(0-inf) [2] of the same compound?
Its AUC(0-inf) is 0.79 µM·h.

What about the inhibition at 10 µM (CYP2C19) of the same compound?
The inhibition at 10 µM was 9%.

And the C0 [3]?
The C0 was 400 nM.

What about the AUC(0-inf) [4] of the same compound?
The AUC(0-inf) was 3.15 µM·h.

What about the inhibition at 10 µM (CYP2D6) of the same compound?
The inhibition at 10 µM was 3%.

And the inhibition at 10 µM (CYP2C8)?
Its inhibition at 10 µM is 0%.

What about the Vd [5] of the same compound?
The Vd was 24.6 L/kg.

And the inhibition at 10 µM (CYP1A2)?
The inhibition at 10 µM was 0%.

And the CL [6]?
Its CL is 62.9 mL/min/kg.

What about the solubility [7] of the same compound?
The solubility was 640 µg/mL (≈ 1890 µM).

What about the remaining at 0.5 h [8] of the same compound?
Its remaining at 0.5 h is 96%.

And the Cmax [9]?
Its Cmax is 450 nM.

What about the Papp [10] of the same compound?
The Papp was 1.4 ×10⁻⁶ cm/s.

With `CNc1cc(C)nc(Nc2ccc(OC)c(OCCCN3CCCC3)c2)n1` as the compound, how does the inhibition at 10 µM (hERG (KCNH2)) read?
The inhibition at 10 µM was 42%.

And the bioavailability [1]?
Its bioavailability is 17%.

And the AUC(0-inf) [2]?
Its AUC(0-inf) is 1.71 µM·h.

What about the inhibition at 10 µM (CYP2C19) of the same compound?
The inhibition at 10 µM was 3%.

What about the C0 [3] of the same compound?
Its C0 is 260 nM.

And the AUC(0-inf) [4]?
Its AUC(0-inf) is 2.86 µM·h.

What about the inhibition at 10 µM (CYP2D6) of the same compound?
The inhibition at 10 µM was 8%.

What about the inhibition at 10 µM (CYP2C8) of the same compound?
The inhibition at 10 µM was 2%.

And the Vd [5]?
Its Vd is 8.3 L/kg.

What about the inhibition at 10 µM (CYP1A2) of the same compound?
The inhibition at 10 µM was 5%.

What about the CL [6] of the same compound?
The CL was 27.4 mL/min/kg.

And the solubility [7]?
The solubility was 590 µg/mL (≈ 1590 µM).

What about the remaining at 0.5 h [8] of the same compound?
The remaining at 0.5 h was 99%.

What about the Cmax [9] of the same compound?
The Cmax was 220 nM.

And the Papp [10]?
The Papp was 3.1 ×10⁻⁶ cm/s.
